This is an account of results in US5962516A, “Immunosuppressive compounds and methods” (priority 1999, dated 1999).

pIC50: −log10 of the molar value. Structures can show the parent of a compound that is named as a salt.

The subject of experiment [1] is mixed lymphocyte reaction (spleen cells from female C57BL/6 mice, stimulated with Balb/C spleen cells). Briefly: Mixed lymphocyte reaction (MLR) assay. It is filed as cell-based, mouse. As to conditions: 50% suppression of proliferation. The method, then: Inhibition of cell proliferation by the subject compounds was assayed in the mixed lymphocyte reaction (MLR) (Bradley, 1980; Mishell, 1980). Spleen cells from female C57BL/6 mice, the "responder" cells, were prepared and co-cultured alone or in the presence of varying concentrations of the test compounds, with irradiated spleen cells prepared from female Balb/C mice, the "stimulator" cells. Prior irradiation of the stimulator cells rendered them unable to proliferate. A sample of the responder cells was also irradiated for use as a control. The non-irradiated responder cells proliferate in the presence of the allogenic stimulator cells. After a 78-hour incubation, tritiated thymidine was added to the mixed cell cultures, and incorporation of the labeled nucleotide into DNA was measured as an index of cell proliferation.
In this study, the responder cells (R) were spleen cells from female C57BL16 mice, and the stimulator cells (S) were spleen cells from female Balb/C mice 6 to 8 weeks of age (Jackson, Bar Harbor, Me.). The spleens were aseptically removed from the mice and placed into 10 ml of cold HBSS in a sterile petri dish. The spleen was cut in half and gently pressed between the frosted ends of 2 sterile microslides. The cell suspension was then filtered through sterile nylon mesh (Nytex, Tetco #HD-3-85) into a 15 ml conical polypropylene centrifuge tube and centrifuged at 200×g for 10 minutes in a Beckman GPR tabletop centrifuge (GH-3.7 Rotor). Following an additional wash in HBSS, the spleen cells were resuspended in RPMI 1640 medium (Gibco) containing 50 uM 2-mercaptoethanol, 2 mM glutamine, 100 U/ml penicillin, 100 μg/ml streptomycin and 10% heat-inactivated fetal bovine serum.
The stimulator cells (S) and part of the responder cells (R) were diluted at 10×10^6 cells/ml and irradiated at 20 cGy with a Cesium Irradiator (Department of Radiation Oncology, Stanford University, California) to inhibit proliferation. The irradiated cells were washed once to remove any toxic free radicals and their products resulting from irradiation. The responder cells (R), irradiated stimulator cells (Sx) and irradiated responder cell (Rx) were all diluted to 4×10^6 cells/ml.
In the assay, 4×10^5 cells of R were cocultured with 4×10^5 cells of Sx in 200 μl of medium in round bottom 96 well tissue culture plates. Fifty micro-liters of test samples at various concentrations were added to the cells. The wells receiving no test samples would get the maximum proliferation. Several controls were used in the assay. The irradiated responder cells (Rx) were also added to the responder cells with and without the test samples. Rx or Sx alone were checked to make sure no proliferation occurred after irradiation. The spontaneous proliferation of R was also measured.
The culture plates were incubated at 37° C. in a 5% CO2 incubator for four days. The cells were labelled with 1 μCi of (^3 H)-thymidine (Amersham, 49 Ci/mmol) in 20 μl of medium for the last 18 hours. Cells were then harvested and counted. The results were reported as counts per minute (cpm) per well. Percent of suppression and IC50 (concentration of sample producing 50% suppression of proliferation) were used to indicate the suppressive activity of the sample. Sample cpm was calculated as (R+Sx+sample)cpm-(R+Rx+sample)cpm; control cpm was calculated as (R+Sx)cpm-(R+Rx)cpm. Percent suppression of MLR activity was calculated as (1-sample cpm/control cpm)×100. IC50 was determined from percent suppression to indicate the suppressive activity of the sample.

In experiment [2] the test system is IL-1β action on murine thymocytes. In words: Inhibition of IL-1 action (IL-1 assay): suppression of IL-1β + PHA stimulated murine thymocyte proliferation. In kind it is cell-based, mouse (C3H/HeN). As to conditions: 50% suppression of proliferation, 72 h culture. As for the experimental part:
The ability of the above compounds to suppress the cell-proliferative effect of IL-1β in vitro (O'Gara, 1990) was examined as described in Example 11. Mouse thymocytes in culture were stimulated with IL-1β in the presence of phytohemagglutinin (PHA) and increasing concentrations of triptolide (control) and triptolide derivatives. The cells were cultured for 72 hours, and during the last 18 hours, incubated with tritiated thymidine. DNA synthesis was assessed by measuring incorporation of radiolabeled thymidine. The results expressed in terms of IC50 (concentration effective to cause 50% suppression of proliferation) are shown in Table 1.
C3H/HeN mouse thymocytes were prepared and the action of IL-1 together with PHA, which stimulate proliferation of thymocyte, was measured using standard techniques (O'Gara, 1990; Mishell, 1980). Three- to six-week old C3H/HeN male mice (Simonson Laboratory, Gilroy, Calif.) were sacrificed by CO2 inhalation. Thymi were removed, separated from adherent non-thymic tissue, homogenized in Hank's balanced salt solution (HBSS, Gibco) using a glass homogenizer, and centrifuged at 200×g for 10 minutes at 15° C. Following an additional wash in HBSS, the thymocytes were resuspended in RPMI 1640 medium containing 50 uM 2-mercaptoethanol, 2 mM glutamine, 1 mM sodium pyruvate, non-essential amino acids 100 U/ml penicillin, 100 μg/ml streptomycin, and 10% heat-inactivated fetal bovine serum.
Cells were cultured in round-bottom 96 well microtiter tissue culture plates, 6×10^5 cells per well, in a volume of 100 μl. Recombinant human IL-1β (R & D Systems #201-LB) together with Phytohemagglutinin P (PHA, Pharmacia) were added to the cells in volume of 25 μl per well to achieve a final concentration of 0.08 ng/ml and 10 μg/ml, respectively. Samples were dissolved in DMSO (10 mg/ml), then diluted in culture medium. Twenty five microliters of the test sample was added to each well to achieve the final compound concentrations for each experiment. Cells with PHA together with IL-1 served as controls. The total volume for each well was 150 μl.
Plates were incubated at 37° C. in a 5% CO2 incubator for 72 hours. Fifty microliters of culture medium containing 0.5 μCi (^3 H)-thymidine (Amersham, 49 Ci/mmol) was added to each well prior to the last 18 hours of incubation. Cells were then harvested and counted. The results were reported as counts per minute (cpm) per 6×10^5 cells.
The following formula was used to calculate the percent of suppression of IL-1 activity, and IC50 (concentration of sample yielding 50% suppression of proliferation) was used to indicate the suppressive activity of the sample.
% suppression of IL-1 activity=(1-sample cpm/(IL-1+PHA control

A word on the pIC50: it is the IC50 on a negative log10 scale, so that one unit is a factor of ten. As to `CC(C)C12OC1C1OC13C1(C)CCC4=C(COC4=O)C1CC1OC13C2OC(=O)CCC(=O)O` (stereo not shown) [YM-276, Triptolide Succinate Lysine Salt], in experiment [1], the “MLR Assay IC50” value was 0.063 µg/mL. Also, the values for the pIC50 in experiment [1] (read-out: MLR Assay IC50) and in experiment [2] (read-out: IL-1 Assay IC50) were 6.98 and 6.62, respectively. Moreover, the “IL-1 Assay IC50” value in experiment [2] was found to be 0.144 µg/mL.
